Test results published in patent publication US4886826A, “Substituted 2,3,4,9-tetrahydro-1H-carbazole-1-acetic acid derivatives, composition and use” (American Home Products Corporation, priority 1989, dated 1989).
Like-named read-outs stand apart in the source and are kept apart here.

Legend:
cyclooxygenase = assay: Rat Polymorphonuclear Leukocyte Assay, cyclooxygenase products (thromboxane B2, prostaglandin E2); type: cell-based; conditions: 10 min, 10 μM drug concentration, minus=decrease, plus=increase relative to control (no drug), A23187-stimulated, 3H arachidonic acid
Protocol: (§1) A test for lipoxygenase and cyclooxygenase inhibitory activity is the Rat Polymorphonuclear Leukocyte Assay. The assay is carried out as follows: glycogen-elicited rat peritoneal cells (10^7 /1.0 mL) are incubated (37° C.)±drug in a shaking water bath for 10 minutes. One micromolar (final concentration) ^3 H arachidonic acid (2.0 μCi) is then added to each sample followed by the immediate addition of 1.0 micromolar A23187* (final concentration). The cells are incubated another 10 minutes and the reaction is stopped by high-speed centrifugation. Supernatants are then analyzed by HPLC using an in-line radioactivity detector. […] Results are qualitatively expressed as a percent change (minus=decrease, plus=increase) relative to the control (no drug). [drawing 20]

lipoxygenase = assay: Rat Polymorphonuclear Leukocyte Assay, lipoxygenase products (leukotriene B4, 5-HETE); type: cell-based; conditions: 10 min, 10 μM drug concentration, minus=decrease, plus=increase relative to control (no drug), A23187-stimulated, 3H arachidonic acid
Protocol: as §1

[1] = system: Freund's complete adjuvant-induced hind paw edema in rats; assay: Preventative Adjuvant Edema (Freund's complete adjuvant hind paw edema, acute anti-inflammatory effect); type: in vivo, Male Sprague Dawley rats; conditions: 25 mg/kg, p.o.; rat; edema volume day 0 to day 3
Protocol: This test is a primary screen for anti-inflammatory drugs.
Male Sprague Dawley rats (180-200 g) are used. The animals have free access to water but food is withdrawn 18 hours before testing.
Freund's complete adjuvant is prepared by suspending 5 mg of killed and dried Mycobacterium butyricum (Difco) in 1 mL liquid paraffin. The test compounds are dissolved in distilled water or suspended in 0.5% Tween 80 in distilled water according to their solubility. For primary screening all drugs are administered by gastric gavage at the arbitrary dosage of 25 mg/kg, p.o. in a volume of 0.5 mL/100 g body weight to groups of 10 animals.
The method is essentially that described by Wax et al, J. Pharmacol. Exp. Ther., 192, 166-171 (1975). Groups of rats are injected intradermally in the left hind paw with 0.1 mL of Freund's complete adjuvant. The test compound or vehicle is administered immediately before the adjuvant, 24 hours and 48 hours after the adjuvant (days 0, 1 and 2). The injected hind paw volume is measured before the injection of adjuvant and 24 hours after the last drug administration (day 3) by means of a plethysomometer (Buxco Electronics Inc.). The difference between the hind paw volume on day 0 and day 3 represents the edema volume. Etodolac (25 mg/kg, p.o.) is included as a positive control.
The mean edema volume (expressed as mL±SEM) is calculated for each group and the percentage inhibition of inflammation conferred by the drug is calculated: [formula] where c is the mean edema volume for the untreated controls and t is the mean edema volume for the drug treated group.

[2] = system: Phenylbenzoquinone-induced writhing in mice; assay: Phenylbenzoquinone-induced Writhing in Mice (analgesic activity); type: in vivo, Male Swiss albino mice; conditions: 10 mg/kg, p.o.; mouse; writhes in 15 minutes, PBQ i.p. 60 minutes after dosing
Protocol: A further test used to determine the utility of the compounds of the present invention is designated: Drug Effects on Phenylbenzoquinone-induced Writhing in Mice.
The objective of this test is to determine the ability of test drugs to inhibit the nociceptive (pain) response of mice injected with a chemical irritant. This test is a primary screen for both peripherally and centrally acting analgesic drugs.
Male Swiss albino mice (15-25 g) are used. The animals are fasted for 18 hours prior to use but have free access to water.
Drugs are dissolved or suspended according to their solubility in 0.5% Tween 80 in distilled water. They are administered by gastric gavage in a volume of 5 mL/kg. For primary screening all drugs are administered at the arbitrary dosage of 10 mg/kg, p.o. to a group of 10 mice.
A modification of the method of Siegmund et al., Proc. Soc. Exp. Biol. Med., 95, 729-731 (1957) is used. Groups of 5 mice are dosed with the test compound or vehicle control. Sixty minutes later the animals are injected i.p. with 0.3 mL/20 g body weight of a 0.02% solution of phenylbenzoquinone (PBQ; 2-phenyl-1,4-benzoquinone) and placed in individual observation boxes. The number of writhes or abdominal squirming movements made by each mouse during the following 15 minute period is counted. The experiment is repeated with another group of 5 mice and the mean number of writhes per mouse for a group of 10 mice is calculated.
Drug-treated and vehicle-treated control groups are compared and the percentage protection conferred by the drug is calculated: [formula] where c=mean number of writhes in the control group where t=mean number of writhes in the test drug group

[3] = read-out: % change prostaglandin E2
[4] = read-out: % change thromboxane B2
[5] = read-out: % change 5-HETE (5-hydroxyeicosatetraenoic acid)
[6] = read-out: % change leukotriene B4

Compound	inhibition at 10 µM (cyclooxygenase; [3])	inhibition at 10 µM (cyclooxygenase; [4])	inhibition at 10 µM (lipoxygenase; [5])	inhibition at 10 µM (lipoxygenase; [6])	% Inhibition [1]	% Inhibition [2]
C=CCCCCC1CCC(CC)(CC(=O)O)c2[nH]c3c(CC)cccc3c21 (single isomer, unassigned) [Example 1, 1,8-Diethyl-4(5-hexenyl)-2,3,4,9-tetrahydro-1H-carbazole-1-acetic Acid]	31%	82%	92%	93%	0%	0%
C=CC/C=C\C[C@H]1CC[C@@](CC)(CC(=O)O)c2[nH]c3c(C)cccc3c21 (relative stereo) [Example 4, [1, 4 (Z)]-1-Ethyl-4-(2,5-hexadienyl)-2,3,4,9-tetrahydro-8-methyl-1H-carbazole-1-acetic Acid]	19%	88%	94%	94%	43%	23%
C=CCCCCC1CCC(CC)(CC(=O)O)c2[nH]c3c(C)cccc3c21 (single isomer, unassigned; isomer b) [Example 2, 1-Ethyl-4-(5-hexenyl)-2,3,4,9-tetrahydro-8-methyl-1H-carbazole-1-acetic Acid (Isomer B)]	-22%	80%	92%	95%	28%	0%
C=CCCCCC1CCC(CC)(CC(=O)O)c2[nH]c3c(C)cccc3c21 (single isomer, unassigned; isomer a) [Example 3, 1-Ethyl-4-(5-hexenyl)-2,3,4,9-tetrahydro-8-methyl-1H-carbazole-1-acetic Acid (Isomer A)]					19%	10%
